Source: patent US20250367166A1, “NEXT GENERATION DIPROVOCIMS THAT ACTIVATE THE INNATE AND ADAPTIVE IMMUNE RESPONSE” (The Scripps Research Institute, priority 2022, published 2025)
Like-named read-outs stand apart in the source and are kept apart here.

Tests used:
TLR1/TLR2 [1] = biological target: TLR1/TLR2 (Homo sapiens, UniProt O60603+Q15399); assay: TNF-α release from PMA-differentiated human THP-1 cells (ELISA); details: for Emax: THP-1, 4 h, read-out: Efficacy (magnitude) of response versus diprovocim-1 (100%), THP-1;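 as to all read-outs here: cells exposed to graded compound concentrations for 4 h, TNF-α quantified in supernatant, LPS as positive and DMSO as negative control, values are duplicate means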
TLR1/TLR2 [2] = biological target: TLR1/TLR2 (Mus musculus, UniProt Q9EPQ1+Q9QUN7); assay: TNF-α release from thioglycolate-elicited mouse peritoneal macrophages (ELISA); details: for Emax: 4 h, read-out: Efficacy (magnitude) of response versus diprovocim-1 (100%), mouse macrophages
Description: Thioglycolate-elicited macrophages were recovered 4 days after i.p. injection of 2 mL BBL thioglycolate medium, brewer modified (4%; BD Biosciences) by peritoneal lavage with 5 mL phosphate buffered saline (PBS). […] Cells were seeded onto 96-well plates at 1×10^3 cells per well and treated with systematically varied concentrations of the candidate compounds (dissolved in DMSO, and final assay DMSO concentrations (0.5%) were kept constant in all experiments) for 4 h. Ultra-pure LPS (dissolved in H2O, Enzo Life Sciences) was assessed alongside the compounds as a positive control and DMSO treated controls. […] Mouse TNF-α in the supernatants was measured by ELISA kits according to the manufacturer's instructions (eBioscience). EC50's were calculated by Graphpad Prism. All data is mean of duplicates and SD is within ±10% of mean. Mouse cells were from wild type C57BL/6J mice.

[3] = read-out: EC50 (nM) (THP-1): EC50 TNF-α release from human THP-1 cells, Table 3
[4] = read-out: EC50 (nM) (mouse): EC50 TNF-α release from mouse macrophages, Table 3
[5] = read-out: EC50 (nM) (THP-1): EC50 TNF-α release from human THP-1 cells, Table 1
[6] = read-out: EC50 (nM) (mouse): EC50 TNF-α release from mouse macrophages, Table 1
[7] = read-out: EC50 (nM) (THP-1): EC50 TNF-α release from human THP-1 cells, Table 6
[8] = read-out: EC50 (nM) (mouse): EC50 TNF-α release from mouse macrophages, Table 6
[9] = read-out: EC50 (nM) (THP-1): EC50 TNF-α release from human THP-1 cells, Table 5
[10] = read-out: EC50 (nM) (mouse): EC50 TNF-α release from mouse macrophages, Table 5

Chain of TLR1/TLR2 (Mus musculus, UniProt Q9EPQ1+Q9QUN7) (Q9EPQ1 26-795): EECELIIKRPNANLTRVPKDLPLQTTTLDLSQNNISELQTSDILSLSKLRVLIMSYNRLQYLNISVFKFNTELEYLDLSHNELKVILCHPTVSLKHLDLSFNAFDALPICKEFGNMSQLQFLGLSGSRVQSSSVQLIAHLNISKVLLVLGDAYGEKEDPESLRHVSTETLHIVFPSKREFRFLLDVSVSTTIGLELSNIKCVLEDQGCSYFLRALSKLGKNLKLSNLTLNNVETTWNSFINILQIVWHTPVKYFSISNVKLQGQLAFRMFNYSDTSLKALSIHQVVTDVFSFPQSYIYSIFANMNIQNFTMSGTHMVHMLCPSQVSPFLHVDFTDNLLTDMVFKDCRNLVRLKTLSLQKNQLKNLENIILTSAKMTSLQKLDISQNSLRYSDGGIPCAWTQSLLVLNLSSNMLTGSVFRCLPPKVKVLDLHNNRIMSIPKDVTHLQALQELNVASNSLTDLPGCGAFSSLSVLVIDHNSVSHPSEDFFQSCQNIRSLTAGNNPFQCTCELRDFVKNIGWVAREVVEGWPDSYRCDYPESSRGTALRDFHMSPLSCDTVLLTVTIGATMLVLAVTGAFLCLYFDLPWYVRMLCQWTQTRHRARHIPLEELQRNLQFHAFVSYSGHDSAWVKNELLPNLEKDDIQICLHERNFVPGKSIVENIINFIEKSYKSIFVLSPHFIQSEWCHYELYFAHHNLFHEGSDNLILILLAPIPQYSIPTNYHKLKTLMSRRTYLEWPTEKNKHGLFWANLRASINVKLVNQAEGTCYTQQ
Chain of TLR1/TLR2 (Mus musculus, UniProt Q9EPQ1+Q9QUN7) (Q9QUN7 25-784): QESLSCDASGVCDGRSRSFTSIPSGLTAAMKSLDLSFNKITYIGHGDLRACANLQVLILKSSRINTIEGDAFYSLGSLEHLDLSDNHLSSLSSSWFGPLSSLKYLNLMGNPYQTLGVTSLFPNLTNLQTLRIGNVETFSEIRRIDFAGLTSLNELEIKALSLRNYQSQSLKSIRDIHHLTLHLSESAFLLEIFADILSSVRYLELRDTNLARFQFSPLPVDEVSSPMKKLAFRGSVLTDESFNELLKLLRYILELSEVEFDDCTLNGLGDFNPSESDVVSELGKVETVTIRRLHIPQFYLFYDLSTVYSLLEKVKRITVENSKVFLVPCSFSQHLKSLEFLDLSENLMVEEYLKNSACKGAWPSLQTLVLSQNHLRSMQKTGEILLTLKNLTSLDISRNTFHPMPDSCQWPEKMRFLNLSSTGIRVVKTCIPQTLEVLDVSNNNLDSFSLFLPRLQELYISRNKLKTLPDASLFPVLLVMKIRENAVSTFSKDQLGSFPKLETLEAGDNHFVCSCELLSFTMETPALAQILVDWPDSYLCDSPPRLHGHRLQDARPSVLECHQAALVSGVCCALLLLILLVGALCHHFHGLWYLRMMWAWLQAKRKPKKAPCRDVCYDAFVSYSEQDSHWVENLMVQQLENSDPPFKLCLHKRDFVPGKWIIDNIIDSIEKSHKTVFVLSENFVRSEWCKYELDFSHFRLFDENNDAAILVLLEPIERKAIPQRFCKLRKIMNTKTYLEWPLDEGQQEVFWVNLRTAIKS
Chain of TLR1/TLR2 (Homo sapiens, UniProt O60603+Q15399) (Q15399 25-786): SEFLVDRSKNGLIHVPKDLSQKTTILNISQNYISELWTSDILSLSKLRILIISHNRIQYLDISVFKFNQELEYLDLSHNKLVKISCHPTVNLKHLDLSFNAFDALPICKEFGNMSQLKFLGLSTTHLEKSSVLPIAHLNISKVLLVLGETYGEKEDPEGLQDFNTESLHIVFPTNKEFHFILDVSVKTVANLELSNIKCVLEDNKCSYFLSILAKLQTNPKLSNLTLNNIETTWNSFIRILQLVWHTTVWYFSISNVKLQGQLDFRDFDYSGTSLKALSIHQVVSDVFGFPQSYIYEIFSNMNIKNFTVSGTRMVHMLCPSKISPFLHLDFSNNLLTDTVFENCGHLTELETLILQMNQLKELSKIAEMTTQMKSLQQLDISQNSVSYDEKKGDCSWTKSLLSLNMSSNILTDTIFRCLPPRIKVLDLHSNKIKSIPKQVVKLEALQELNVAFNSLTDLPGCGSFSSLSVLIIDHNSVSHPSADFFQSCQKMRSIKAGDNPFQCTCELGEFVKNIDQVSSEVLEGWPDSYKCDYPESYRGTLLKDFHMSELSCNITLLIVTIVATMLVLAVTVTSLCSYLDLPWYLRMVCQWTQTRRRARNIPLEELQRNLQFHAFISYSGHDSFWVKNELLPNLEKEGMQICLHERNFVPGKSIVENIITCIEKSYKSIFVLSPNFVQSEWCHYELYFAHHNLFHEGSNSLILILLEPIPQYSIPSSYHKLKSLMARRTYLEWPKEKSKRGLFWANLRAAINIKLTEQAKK
Chain of TLR1/TLR2 (Homo sapiens, UniProt O60603+Q15399) (O60603 21-784): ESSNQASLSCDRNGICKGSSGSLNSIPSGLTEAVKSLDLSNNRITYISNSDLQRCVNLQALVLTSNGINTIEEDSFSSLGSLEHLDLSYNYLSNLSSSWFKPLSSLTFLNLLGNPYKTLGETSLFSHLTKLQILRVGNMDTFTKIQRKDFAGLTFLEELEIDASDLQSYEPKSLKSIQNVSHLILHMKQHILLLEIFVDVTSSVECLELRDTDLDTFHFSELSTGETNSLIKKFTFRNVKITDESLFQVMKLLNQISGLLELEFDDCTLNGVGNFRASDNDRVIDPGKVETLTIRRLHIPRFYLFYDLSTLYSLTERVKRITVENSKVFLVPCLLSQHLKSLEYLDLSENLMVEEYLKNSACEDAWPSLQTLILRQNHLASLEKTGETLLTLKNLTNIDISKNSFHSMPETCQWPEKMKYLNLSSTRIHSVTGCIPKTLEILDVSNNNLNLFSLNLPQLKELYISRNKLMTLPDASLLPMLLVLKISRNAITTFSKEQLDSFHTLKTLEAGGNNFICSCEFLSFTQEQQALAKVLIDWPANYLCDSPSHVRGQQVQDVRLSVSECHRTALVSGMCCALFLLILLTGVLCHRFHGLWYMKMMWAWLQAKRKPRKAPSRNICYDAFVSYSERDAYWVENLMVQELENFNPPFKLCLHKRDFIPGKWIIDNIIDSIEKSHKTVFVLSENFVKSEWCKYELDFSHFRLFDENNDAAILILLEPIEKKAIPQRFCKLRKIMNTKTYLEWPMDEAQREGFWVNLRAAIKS

| Structure (SMILES) | Emax (TLR1/TLR2 [1]) | Emax (TLR1/TLR2 [2]) | EC50 (TLR1/TLR2 [1]; [5]) | EC50 (TLR1/TLR2 [2]; [6]) | other results |
| --- | --- | --- | --- | --- | --- |
| NCC(=O)OCCCCCCCCCCCCNC(=O)[C@@H]1CN(C(=O)c2ccc(C(=O)N3C[C@@H](C(=O)N[C@H]4C[C@@H]4c4ccccc4)[C@H](C(=O)N[C@H]4C[C@@H]4c4ccccc4)C3)cc2)C[C@H]1C(=O)N[C@H]1C[C@@H]1c1ccccc1 [Compound 43, 12-((3S,4S)-1-(4-((3S,4S)-3,4-Bis(((1S,2R)-2-phenylcyclopropyl)carbamoyl)pyrrolidine-1-carbonyl)benzoyl)-4-(((1S,2R)-2-phenylcyclopropyl)carbamoyl)pyrrolidine-3-carboxamido)dodecyl glycinate] | 100% | 100% |  |  | EC50 (TLR1/TLR2 [1]): 0.05 to 0.2 nM; EC50 (TLR1/TLR2 [1]; [3]): 0.07 nM; EC50 (TLR1/TLR2 [2]): 0.7 to 5 nM; EC50 (TLR1/TLR2 [2]; [4]): 0.75 nM |
| CC(C)(C)OC(=O)CNC(=O)CCCCCCCCCCCNC(=O)[C@@H]1CN(C(=O)c2ccc(C(=O)N3C[C@@H](C(=O)N[C@H]4C[C@@H]4c4ccccc4)[C@H](C(=O)N[C@H]4C[C@@H]4c4ccccc4)C3)cc2)C[C@H]1C(=O)N[C@H]1C[C@@H]1c1ccccc1 [Compound 14, tert-Butyl (12-((3S,4S)-1-(4-((3S,4S)-3,4-bis(((1S,2R)-2-phenylcyclopropyl)carbamoyl)-pyrrolidine-1-carbonyl)-benzoyl)-4-(((1S,2R)-2-phenylcyclopropyl)carbamoyl)pyrrolidine-3-carboxamido)dodecanoyl)glycinate] | 100% | 70% | 20 nM | 25 nM |  |
| CC(C)(C)OC(=O)C(=O)NCC(=O)OCCCCCCCCCCCCNC(=O)[C@@H]1CN(C(=O)c2ccc(C(=O)N3C[C@@H](C(=O)N[C@H]4C[C@@H]4c4ccccc4)[C@H](C(=O)N[C@H]4C[C@@H]4c4ccccc4)C3)cc2)C[C@H]1C(=O)N[C@H]1C[C@@H]1c1ccccc1 [Compound 83, tert-Butyl 2-((2-((12-((3S,4S)-1-(4-((3S,4S)-3,4-bis(((1S,2R)-2-phenylcyclopropyl)carbamoyl)-pyrrolidine-1-carbonyl)benzoyl)-4-(((1S,2R)-2-phenylcyclopropyl)carbamoyl)pyrrolidine-3-carboxamido)dodecyl)oxy)-2-oxoethyl)amino)-2-oxoacetate] | 110% | 400% |  |  | EC50 (TLR1/TLR2 [1]; [7]): 0.54 nM; EC50 (TLR1/TLR2 [2]; [8]): 16 nM |
| CC[C@H](C)[C@H](NC(=O)OC(C)(C)C)C(=O)OCCCCCCCCCCCCNC(=O)[C@@H]1CN(C(=O)c2ccc(C(=O)N3C[C@@H](C(=O)N[C@H]4C[C@@H]4c4ccccc4)[C@H](C(=O)N[C@H]4C[C@@H]4c4ccccc4)C3)cc2)C[C@H]1C(=O)N[C@H]1C[C@@H]1c1ccccc1 [Compound 61, (2S,3S)-12-((3S,4S)-1-(4-((3S,4S)-3,4-Bis(((1S,2R)-2-phenylcyclopropyl)carbamoyl)pyrrolidine-1-carbonyl)-benzoyl)-4-(((1S,2R)-2-phenylcyclopropyl)carbamoyl)-pyrrolidine-3-carboxamido)-dodecyl 2-((tert-butoxy-carbonyl)amino)-3-methylpentanoate] | 100% | 140% |  |  | EC50 (TLR1/TLR2 [1]; [9]): 9 nM; EC50 (TLR1/TLR2 [2]; [10]): 50 nM |
| CC(C)(C)OC(=O)NCCCCCCCCCCCCNC(=O)[C@@H]1CN(C(=O)c2ccc(C(=O)N3C[C@@H](C(=O)N[C@H]4C[C@@H]4c4ccccc4)[C@H](C(=O)N[C@H]4C[C@@H]4c4ccccc4)C3)cc2)C[C@H]1C(=O)N[C@H]1C[C@@H]1c1ccccc1 [Compound 17, tert-Butyl (12-((3S,4S)-1-(4-((3S,4S)-3,4-bis(((1S,2R)-2-phenylcyclopropyl)carbamoyl)-pyrrolidine-1-carbonyl)benzoyl)-4-(((1S,2R)-2-phenylcyclopropyl)carbamoyl)pyrrolidine-3-carboxamido)dodecyl)carbamate] | 70% | 120% | 0.18 nM | 2.8 nM |  |
| O=C(O)/C=C/C(=O)NCC(=O)OCCCCCCCCCCCCNC(=O)[C@@H]1CN(C(=O)c2ccc(C(=O)N3C[C@@H](C(=O)N[C@H]4C[C@@H]4c4ccccc4)[C@H](C(=O)N[C@H]4C[C@@H]4c4ccccc4)C3)cc2)C[C@H]1C(=O)N[C@H]1C[C@@H]1c1ccccc1 [Compound 82, (E)-4-((2-((12-((3S,4S)-1-(4-((3S,4S)-3,4-Bis(((1S,2R)-2-phenylcyclopropyl)carbamoyl)-pyrrolidine-1-carbonyl)benzoyl)-4-(((1S,2R)-2-phenylcyclopropyl)carbamoyl)pyrrolidine-3-carboxamido)dodecyl)oxy)-2-oxoethyl)amino)-4-oxobut-2-enoic acid] | 100% | 60% |  |  | EC50 (TLR1/TLR2 [1]; [7]): 0.32 nM; EC50 (TLR1/TLR2 [2]; [8]): 7 nM |
| O=C(CNC(=O)c1ccc(C(=O)O)cc1)OCCCCCCCCCCCCNC(=O)[C@@H]1CN(C(=O)c2ccc(C(=O)N3C[C@@H](C(=O)N[C@H]4C[C@@H]4c4ccccc4)[C@H](C(=O)N[C@H]4C[C@@H]4c4ccccc4)C3)cc2)C[C@H]1C(=O)N[C@H]1C[C@@H]1c1ccccc1 [Compound 80, 4-((2-((12-((3S,4S)-1-(4-((3S,4S)-3,4-Bis(((1S,2R)-2-phenylcyclopropyl)carbamoyl)pyrrolidine-1-carbonyl)-benzoyl)-4-(((1S,2R)-2-phenylcyclopropyl)carbamoyl)-pyrrolidine-3-carboxamido)-dodecyl)oxy)-2-oxoethyl)carbamoyl)benzoic acid] | 100% | 60% |  |  | EC50 (TLR1/TLR2 [1]; [7]): 0.17 nM; EC50 (TLR1/TLR2 [2]; [8]): 5 nM |
| C[C@H](NC(=O)OC(C)(C)C)C(=O)OCCCCCCCCCCCCNC(=O)[C@@H]1CN(C(=O)c2ccc(C(=O)N3C[C@@H](C(=O)N[C@H]4C[C@@H]4c4ccccc4)[C@H](C(=O)N[C@H]4C[C@@H]4c4ccccc4)C3)cc2)C[C@H]1C(=O)N[C@H]1C[C@@H]1c1ccccc1 [Compound 57, (S)-12-((3S,4S)-1-(4-((3S,4S)-3,4-Bis(((1S,2R)-2-phenylcyclopropyl)carbamoyl)pyrrolidine-1-carbonyl)-benzoyl)-4-(((1S,2R)-2-phenylcyclopropyl)carbamoyl)-pyrrolidine-3-carboxamido)-dodecyl 2-((tert-butoxycarbonyl)amino)propanoate] | 80% | 200% |  |  | EC50 (TLR1/TLR2 [1]; [9]): 0.25 nM; EC50 (TLR1/TLR2 [2]; [10]): 0.67 nM |
| CN(CC(=O)OCCCCCCCCCCCCNC(=O)[C@@H]1CN(C(=O)c2ccc(C(=O)N3C[C@@H](C(=O)N[C@H]4C[C@@H]4c4ccccc4)[C@H](C(=O)N[C@H]4C[C@@H]4c4ccccc4)C3)cc2)C[C@H]1C(=O)N[C@H]1C[C@@H]1c1ccccc1)C(=O)OC(C)(C)C [Compound 70, 12-((3S,4S)-1-(4-((3S,4S)-3,4-Bis(((1S,2R)-2-phenyl-cyclopropyl)carbamoyl)pyrrolidine-1-carbonyl)-benzoyl)-4-(((1S,2R)-2-phenylcyclopropyl)carbamoyl)-pyrrolidine-3-carboxamido)-dodecyl 2-((tert-butoxycarbonyl)(methyl)amino)acetate] | 100% | 110% |  |  | EC50 (TLR1/TLR2 [1]; [9]): 1.7 nM; EC50 (TLR1/TLR2 [2]; [10]): 17 nM |

Further lines, with some results ahead:

| Emax (TLR1/TLR2 [1]) | Emax (TLR1/TLR2 [2]) | EC50 (TLR1/TLR2 [1]; [5]) | EC50 (TLR1/TLR2 [2]; [6]) | Structure (SMILES) | other results |
| --- | --- | --- | --- | --- | --- |
| 100% | 140% |  |  | O=C(CO)OCCCCCCCCCCCCNC(=O)[C@@H]1CN(C(=O)c2ccc(C(=O)N3C[C@@H](C(=O)N[C@H]4C[C@@H]4c4ccccc4)[C@H](C(=O)N[C@H]4C[C@@H]4c4ccccc4)C3)cc2)C[C@H]1C(=O)N[C@H]1C[C@@H]1c1ccccc1 [Compound 45, 12-((3S,4S)-1-(4-((3S,4S)-3,4-Bis(((1S,2R)-2-phenylcyclopropyl)carbamoyl)pyrrolidine-1-carbonyl)benzoyl)-4-(((1S,2R)-2-phenylcyclo-propyl)carbamoyl)pyrrolidine-3-carboxamido)dodecyl 2-hydroxyacetate] | EC50 (TLR1/TLR2 [1]): 0.05 to 0.2 nM; EC50 (TLR1/TLR2 [1]; [3]): 0.2 nM; EC50 (TLR1/TLR2 [2]): 0.7 to 5 nM; EC50 (TLR1/TLR2 [2]; [4]): 0.7 nM |
|  |  | 2 nM | 30 nM | O=C(NCc1ccc(F)cc1)[C@@H]1CN(C(=O)c2ccc(C(=O)N3C[C@@H](C(=O)N[C@H]4C[C@@H]4c4ccccc4)[C@H](C(=O)N[C@H]4C[C@@H]4c4ccccc4)C3)cc2)C[C@H]1C(=O)N[C@H]1C[C@@H]1c1ccccc1 [Compound 24, (3S,4S)-1-(4-((3S,4S)-3,4-Bis(((1S,2R)-2-phenylcyclo-propyl)carbamoyl)pyrrolidine-1-carbonyl)-benzoyl)-N^3-(4-fluorobenzyl)-N^4-((1S,2R)-2-phenylcyclopropyl)-pyrrolidine-3,4-dicarboxamide] |  |
|  |  | 7 nM | 50 nM | O=C(NCc1ccccc1)[C@@H]1CN(C(=O)c2ccc(C(=O)N3C[C@@H](C(=O)N[C@H]4C[C@@H]4c4ccccc4)[C@H](C(=O)N[C@H]4C[C@@H]4c4ccccc4)C3)cc2)C[C@H]1C(=O)N[C@H]1C[C@@H]1c1ccccc1 [Compound 22, (3S,4S)—N^3-Benzyl-1-(4-((3S,4S)-3,4-bis(((1S,2R)-2-phenylcyclopropyl)carbamoyl)pyrrolidine-1-carbonyl)-benzoyl)-N^4-((1S,2R)-2-phenylcyclopropyl)pyrrolidine-3,4-dicarboxamide] |  |
| 90% | 130% |  |  | Nc1ccc(COCCCCCCCCCCCCNC(=O)[C@@H]2CN(C(=O)c3ccc(C(=O)N4C[C@@H](C(=O)N[C@H]5C[C@@H]5c5ccccc5)[C@H](C(=O)N[C@H]5C[C@@H]5c5ccccc5)C4)cc3)C[C@H]2C(=O)N[C@H]2C[C@@H]2c2ccccc2)cc1 [Compound 52, (3S,4S)—N^3-(12-((4-Aminobenzyl)oxy)dodecyl)-1-(4-((3S,4S)-3,4-bis(((1S,2R)-2-phenyl-cyclopropyl)carbamoyl)pyrrolidine-1-carbonyl)-benzoyl)-N^4-((1S,2R)-2-phenylcyclopropyl)pyrrolidine-3,4-dicarboxamide] | EC50 (TLR1/TLR2 [1]; [3]): 0.26 nM; EC50 (TLR1/TLR2 [2]; [4]): 2 nM |
